Measurements reported in PMC5557808 (Nature Communications, 2017).
One block for each compound: values may come before it.

What was measured:
human tongue = settings: cited from earlier work
Description: Sensor design was driven by physiological insights on taste. Structurally diverse molecules are bitter tasting, including polyphenols, flavonoids, or methylxanthines (caffeine)[3]. The main function of sensing bitter taste is linked to the detection of poisonous substances. This would readily explain why bitter taste is so sensitively recognized with some molecules being recognized in the nanomolar range[4]. The human tongue senses bitterness of denatonium down to concentrations of 10 nM with consumer products containing as little as 30–100 ppm[5]. […] To date, it is the mo s t bitter substance known and th e b itter taste can be detected at concentrations of 10 ppb 2. Because of its lower toxicity as co mpar ed to the b itter molecules brucine 3 or str ychnin e it is wid el y used as an additive for denaturing alcohol, deter gents, dis ...

[1] = tested on: Leucine aminopeptidase (AP); experiment: AP buffer (50 mM Tris-HCl, 1 mM CaCl2, and 150 mM NaCl at pH 7.0); settings: porcine kidney, 37 °C, up to 20 h
[2] = tested on: MMP-1, MMP-8, MMP-9, MMP-13; experiment: MMP selectivity of the soluble PCL carboxyfluorescein conjugate; format: biochemical, human; settings: MMPs at 900 ng/mL, 60 min, 37 °C; HPLC
Description: (§1) Pro-MMPs (e.g., MMP-8, MMP-1, or MMP-9; used at 0.1 mg/mL and >100.0 mU/mg based on the manufacturer’s information) were activated with p-aminophenylmercuric acetate (APMA) (8). For that, a 10 mM stock solution of APMA was freshly prepared in 0.1 M NaOH and a 10:1 (v/v) ratio of the respective proenzyme and the APMA solution (MMP:APMA) was incubated for 3 h at 37 °C. The activity was confirmed using the MMP-8 detection kit (QuickZyme Biosciences, Leiden, the Netherlands). […]
Enzymatic reactions were stopped using 4 µL 250 mM ED TA in case of the sensor or heating in cas e of uncoupled PCL (95 °C for 15 minutes; the beads of the sensor would melt at h eatin g due to a different method used). Cleavage was analyzed by […] an al ysis (PCL) or by flow c yto metr y (sensor) in co mpar ison to negative controls (the negative controls for the PCL an d sensor exper i men ts were b y incubation without MMP under otherwise identical conditions). The relative d ecreas e of the PCL’s ma in peak was char act er ized by HPLC (PCL) or of the sensor’s fluorescence b y FACS (sensor) in comparison to control. […]

MMP-8 [3] = target: T1, MMP-8 (Homo sapiens, UniProt P22894); experiment: MMP-8 cleavage of soluble PCL conjugates (HPLC decrease of main peak); format: biochemical; settings: 900 ng/mL MMP-8, after 360 min; 0.5 mg/mL substrate, MMP-8 buffer pH 6.8-7.0, 37 °C under agitation; HPLC; mean, n = 8
T1 construct: purchased EMD Millipore Corporation (Billerica, MA)
T1 sequence (P22894 101-467): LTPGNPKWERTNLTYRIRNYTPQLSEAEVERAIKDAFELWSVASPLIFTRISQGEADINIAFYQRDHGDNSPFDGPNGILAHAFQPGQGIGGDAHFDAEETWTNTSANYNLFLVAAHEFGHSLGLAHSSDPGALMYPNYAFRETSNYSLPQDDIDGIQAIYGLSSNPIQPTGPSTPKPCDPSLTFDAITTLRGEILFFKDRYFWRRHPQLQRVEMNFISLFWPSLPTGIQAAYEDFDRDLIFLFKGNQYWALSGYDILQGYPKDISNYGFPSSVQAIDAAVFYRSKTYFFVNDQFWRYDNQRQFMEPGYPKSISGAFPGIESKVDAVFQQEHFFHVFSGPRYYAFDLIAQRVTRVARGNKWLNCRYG
Description: as §1, with “Netherlands). A stock solution (90 µg/mL) of the activated MMP was prepared (used for cleavage studies on the PCL or the fully assembled microparticle-PCL-tastant setup (sensor), in MMP-8 buffer (200 mM NaCl, 50 mM Tris-HCl, 5 mM CaCl2, 1 µM ZnCl2, 0.05% Brij 35 at pH 6.8–7.0). All MMP experiments are described in detail in the Supplementary Methods.” for “Netherlands).”
in water ( v/v)) and eluent B (0.1 % TFA in 2:3 water-acetonitrile (v/v)) and a gradient from 33 to 80% elu ent B within 30 minutes. UV absorption was r ead at λ = 280 nm or 220 nm. After freezing the samples at -80 °C, fr eeze- drying was performed on a Christ Alpha 1 -4 de vi ce (Martin Christ Gefriertrocknungs anlagen, Osterode am Harz, G e r ma n y) at a desublimers ’ te mperature of - 60 ° C, pressure of 1.030 mbar and processing temperature of 19 °C.
Pro-MMPs (e. g. MMP -8, MMP -1 or MMP-9; adapted to 0.1 mg/mL and > 100.0 mU/mg based on manufacturer information and when appropriate) were activated with APMA 8. For that, a 10 mM stock solution of APMA in 0.1 M NaOH was freshly prepared and a 10:1 (v/v) ratio of the r especti ve proenzyme and APMA solution (MMP:APMA) was incubated for 3 h at 37 °C. The activity was conf ir med using the MMP-8 detection kit (Q uic kZ ym e® Biosciences, Leiden, Netherlands). A stock solution (90 µg/mL) of the activated MMP was prepared (used for cleavage studies on the pr ot eas e-cleavable linker (PCL; e.g. Figure 2) or the fully assemb led microparticle -PCL- t ast ant setup (sensor; e.g. Figure 3) , in MMP -8 buffer (200 mM NaCl, 50 mM Tris-H Cl, 5 mM C aC l2, 1 µM ZnCl2, 0.05 % Brij35 at pH 6.8- 7.0). A ll MMP -8 exp eriments wer e performed as follo ws. 25 µg of the sensor ( see chap ter : Peptide-coupling to beads (Sensor)) in 100 µL MMP-buffer or 1 mg of FP LC -purified and lyophilized PCL as described dissolved 2 mL M MP -buffer resulting in a final concentration of 0.5 mg/ mL substrate was used. […]
Figure 2A , 3, 4B ). […]
(sensor) in co mpar ison to negative controls (the negative controls for the PCL an d sensor exper i men ts were b y incubation without MMP under otherwise identical conditions). The relative d ecreas e of the PCL’s ma in peak was char act er ized by HPLC (PCL) or of the sensor’s fluorescence b y FACS (sensor) in comparison to control. […]

[4] = tested on: Leucine aminopeptidase from porcine kidney; experiment: AP buffer (50 mM Tris-HCl, 1 mM CaCl2 and 150 mM NaCl at pH 7.0); settings: 37 °C, up to 20 h
MMP-8 [5] = experiment: MMP-8 in MMP-8 buffer; settings: human, 37 °C, up to 22 h
MMP-8 [6] = experiment: MMP-8 buffer (200 mM NaCl, 50 mM Tris-HCl, 5 mM CaCl2, 1 µM ZnCl2, 0.05% Brij 35 at pH 6.8–7.0); settings: human, 37 °C, up to 6 hours
[7] = tested on: Leucine aminopeptidase (AP); experiment: AP-incubated peptide (without MMP-8); settings: porcine kidney

Compound: CC[N+](CC)(CC(=O)Nc1c(C)cccc1C)Cc1ccccc1 [Denatonium, Denatonium benzoate]
concentration down to which the human tongue senses bitterness (human tongue): 10 nM

Compound: CC[N+](CC)(CC(=O)Nc1c(C)cccc1C)Cc1ccccc1.[Cl-] [Denatonium chloride]
concentration at which the bitter taste can be detected (human tongue; ref 2 (Supplementary References)): 10 ppb

fragment found [1]: denatonium coupled to lysine
Compound: I AGQ-K-De

Cleavage (%) of the PCL over incubation time, plateau (MMP-8 [3]): > 50%
Compound: Cf-GP QGIA GQ-A( N3)-Q [ID #1b, PCL carboxyfluorescein conjugate]
MMP sensitivity rank order of the soluble PCL conjugate [2]: MMP-8 = MMP-9 > MMP-13 > MMP-1

Compound: De-GPQGIAGQ-A(N3)-Q
not cleaved [4]: one HPLC peak, mass 1331.9 Da after AP incubation

cleaved bond (MMP-8 [5]): G-I
cleaved bond (MMP-8 [6]): G-I
Compound: De-GPQGIAGQ-A( N3)-Q
not cleaved [7]: one HPLC-peak at 7.178 min with a mass of 1331.9 Da, as negative control
